Data: PMC5380139 (FEBS letters, 2017)

Molecular target: T1, LipL (Streptomyces sp., UniProt D4QF25)
T1 sequence (D4QF25 1-274): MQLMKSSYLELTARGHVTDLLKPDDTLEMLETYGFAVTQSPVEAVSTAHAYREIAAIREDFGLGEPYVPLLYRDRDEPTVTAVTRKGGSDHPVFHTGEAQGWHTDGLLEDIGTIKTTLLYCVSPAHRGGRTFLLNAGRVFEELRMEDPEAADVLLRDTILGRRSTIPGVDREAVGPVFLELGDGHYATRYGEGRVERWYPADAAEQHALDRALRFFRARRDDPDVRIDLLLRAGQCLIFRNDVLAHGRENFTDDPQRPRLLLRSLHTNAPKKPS
Type: biochemical

SMILES: O=c1ccn([C@@H]2O[C@H](CCP(=O)(O)O)[C@@H](O)[C@H]2O)c(=O)[nH]1 [UMcP, 5′-deoxyuridine-5′-methylphosphonate]
- Ki: 0.8 µM
